Patent US20090264415A2 (priority 2004, published 2009)

Tested on: peripheral blood mononuclear cells (PBMC) stimulated with allogeneic PBMC or EBV-transformed human B cells (RPMI1788)
Assay: Mixed lymphocyte reaction (MLR) assay
Assay type: cell-based
Details: 50% suppression of the MLR, [3H]-thymidine incorporation; read-out: MLR
Outline: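 Compounds, held as 10 mM DMSO stocks and diluted in culture medium, were added to PBMC stimulated by 30 Gy-irradiated allogeneic PBMC or RPMI1788 cells. Proliferation was read as [3H]-thymidine uptake (1 μCi, final 16 h) after 5 days at 37° C. Inhibition was derived from cpm.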

SMILES | IC50
COc1ccc(-c2ccc3nc(OCCOc4ccccc4)nc(N4CCN(C(=O)Nc5cccc(C)c5)CC4)c3n2)cc1OC [Example 18] | 900 nM
COc1ccc(-c2ccc3nc(N)nc(N4CCN(C(=O)COc5ccccc5)CC4)c3n2)cc1OC [Example 60, 2-amino-4-[(N-phenoxy-acetyl)-piperazin-1-yl]-6-(3,4-dimethoxyphenyl)-pyrido[3,2-d]pyrimidine] | 53 nM

Same assay, conditions: Homo sapiens, RPMI-1788; 50% suppression of the MLR, [3H]-thymidine incorporation; read-out: MLR

SMILES | IC50
COc1cccc(-c2ccc3nc(N)nc(N4CCOCC4)c3n2)n1 [Example 236, 2-amino-4-morpholino-6-(6-methoxy-2-pyridinyl)-pyrido[3,2-d]pyrimidine] | 5300 nM

Same assay, conditions: Homo sapiens, RPMI-1788; MLR assay of example 319; read-out: MLR IC50

SMILES | IC50
Nc1nc(N2CCN(C(=O)COc3ccc(Cl)cc3)CC2)c2nc(-c3ccncc3)ccc2n1 [Example 407, 2-amino-4-[4-(4-chlorophenoxyacetyl)piperazin-1-yl]-6-(pyridin-4-yl)pyrido-[3,2-d]pyrimidine] | 5 nM
CCCCNC(=O)N1CCN(c2nc(N)nc3ccc(-c4ccc(F)cc4)nc23)CC1 [Example 451, 2-amino-4-[4-(N-butylcarbamoyl)-piperazin-1-yl]-6-(4-fluorophenyl)-pyrido[3,2-d]pyrimidine] | 200 nM
Nc1nc(N2CCN(C(=O)COc3ccc(Cl)cc3)CC2)c2nc(-c3cc(F)ccc3F)ccc2n1 [Example 440, 2-amino-4-[4-(4-chlorophenoxyacetyl)piperazin-1-yl]-6-(2,5-difluorophenyl)pyrido-[3,2-d]pyrimidine] | 70 nM
CNc1nc(N2CCN(C(=O)COc3ccc(Cl)cc3)CC2)c2nc(-c3ccc(F)cc3)ccc2n1 [Example 574, 2-methylamino-4-[N-(4-chlorophenoxyacetyl)-piperazin-1-yl]-6-(4-fluorophenyl)-pyrido[3,2-d]pyrimidine] | 336 nM
Nc1nc(N2CCN(C(=O)COc3ccc(Cl)cc3Cl)CC2)c2nc(-c3ccc(F)cc3)ccc2n1 [Example 386, 2-amino-4-[4-(2,4-dichlorophenoxyacetyl)piperazin-1-yl]-6-(4-fluorophenyl)-pyrido[3,2-d]pyrimidine] | 400 nM
Nc1nc(NC2CCN(C(=O)COc3ccc(Cl)cc3)CC2)c2nc(-c3ccc(F)cc3)ccc2n1 [Example 480, 2-amino-4-[1-(4-chlorophenoxyacetyl)piperid-4-ylamino]-6-(4-fluorophenyl)-pyrido[3,2-d]pyrimidine] | 2200 nM
Nc1nc(N2CCN(C(=O)COc3ccc(Cl)cc3)CC2)c2nc(-c3ccc(O)cc3)ccc2n1 [Example 415, 2-amino-4-[4-(4-chlorophenoxyacetyl)piperazin-1-yl]-6-(4-hydroxyphenyl)pyrido-[3,2-d]pyrimidine] | 6 nM
N#CCc1ccc(-c2ccc3nc(N)nc(N4CCN(C(=O)COc5ccc(Cl)cc5)CC4)c3n2)cc1 [Example 499, 2-amino-4-[N-(4-chlorophenoxyacetyl)-piperazin-1-yl]-6-(4-cyanomethyl-phenyl)-pyrido(3,2-d)pyrimidine] | 11 nM
CS(=O)(=O)c1ccc(-c2ccc3nc(N)nc(N4CCN(C(=O)COc5ccc(Cl)cc5)CC4)c3n2)cc1 [Example 417, 2-amino-4-[4-(4-chlorophenoxyacetyl)piperazin-1-yl]-6-(4-(methanesulfonyl)-phenyl)pyrido-[3,2-d]pyrimidine] | 28 nM
C[C@H]1CN(C(=O)COc2ccc(Cl)cc2)CCN1c1nc(N)nc2ccc(-c3ccc(F)cc3)nc12 [Example 489, (S)-2-amino-4-[4-(4-chlorophenoxyacetyl)-2-methylpiperazin-1-yl]-6-(4-fluorophenyl)-pyrido[3,2-d]pyrimidine] | 5 nM
Cc1cccc(NC(=O)N2CCN(c3nc(N)nc4ccc(-c5ccc(C#N)cc5)nc34)CC2)c1 [Example 543, 2-amino-4-[(3-methylphenylcarbamoyl)-piperazin-1-yl]-6-(4-cyano-phenyl)-pyrido[3,2-d]pyrimidine] | 30 nM
COc1c(C)cc(-c2ccc3nc(N)nc(N4CCN(C(=O)COc5ccc(Cl)cc5)CC4)c3n2)cc1C [Example 502, 2-amino-4-[N-(4-chlorophenoxyacetyl)-piperazin-1-yl]-6-(3,5-dimethyl-4-methoxyphenyl)-pyrido(3,2-d)pyrimidine] | 78 nM
CCN(CC)C(=O)N1CCN(c2nc(N)nc3ccc(-c4ccc(F)cc4)nc23)CC1 [Example 463, 2-amino-4-[4-(diethylcarbamoyl)piperazin-1-yl]-6-(4-fluorophenyl)-pyrido[3,2-d]pyrimidine] | 600 nM
CC(Cl)C(=O)N1CCN(c2nc(N)nc3ccc(-c4ccc(F)cc4)nc23)CC1 (stereo not shown) [Example 468, 2-amino-4-[4-(2-chloropropionyl)piperazin-1-yl]-6-(4-fluorophenyl)-pyrido[3,2-d]pyrimidine] | 3200 nM
Nc1nc(N2CCN(C(=O)COc3ccc(Cl)cc3)CC2)c2nc(-c3ccc(C(=O)O)s3)ccc2n1 [Example 413, 2-amino-4-[4-(4-chlorophenoxyacetyl)piperazin-1-yl]-6-(2-carboxythiophen-5-yl)pyrido-[3,2-d]pyrimidine] | > 10000 nM
Nc1nc(NC2CCN(C(=O)COc3ccccc3)CC2)c2nc(-c3ccc(F)cc3)ccc2n1 [Example 485, 2-amino-4-[1-(phenoxyacetyl)piperid-4-ylamino]-6-(4-fluorophenyl)-pyrido[3,2-d]pyrimidine] | 300 nM

SMILES | IC50
Cc1cccc(OCC(=O)N2CCN(c3nc(N)nc4ccc(-c5ccc(F)cc5)nc34)CC2)c1 [Example 384, 2-amino-4-[4-(3-methylphenoxyacetyl)piperazin-1-yl]-6-(4-fluorophenyl)-pyrido[3,2-d]pyrimidine] | 50 nM
Nc1nc(N2CCN(C(=O)COc3ccc(Cl)cc3)CC2)c2nc(Cl)ccc2n1 [Example 492, 2-amino-4-(N-(4-chlorophenoxyacetyl)-piperazin-1-yl)-6-chloro-pyrido[3,2-d]pyrimidine] | 80 nM
CC(C)C(C(=O)N1CCN(c2nc(N)nc3ccc(-c4ccc(F)cc4)nc23)CC1)c1ccc(Cl)cc1 (stereo not shown) [Example 467, 2-amino-4-{4-[2-(4-chlorophenyl)-3-methylbutyryl]-piperazin-1-yl}-6-(4-fluorophenyl)-pyrido[3,2-d]pyrimidine] | 4700 nM
Nc1nc(N2CCN(C(=O)COc3ccc(Cl)cc3)CC2)c2nc(-c3c(F)cccc3F)ccc2n1 [Example 428, 2-amino-4-[4-(4-chlorophenoxyacetyl)piperazin-1-yl]-6-(2,6-difluorophenyl)pyrido-[3,2-d]pyrimidine] | 300 nM
Cc1ccccc1-c1ccc2nc(N)nc(N3CCN(C(=O)COc4ccc(Cl)cc4)CC3)c2n1 [Example 512, 2-amino-4-[N-(4-chlorophenoxyacetyl)-piperazin-1-yl]-6-(2-methyl-phenyl)-pyrido(3,2-d)pyrimidine] | 8 nM
Cc1cccc(NC(=O)N2CCN(c3nc(N)nc4ccc(-c5ccncc5)nc34)CC2)c1 [Example 542, 2-amino-4-[(3-methylphenylcarbamoyl)-piperazin-1-yl]-6-(4-pyridyl)-pyrido[3,2-d]pyrimidine] | 5 nM
Nc1nc(N2CCN(C(=O)COc3ccc(Cl)cc3)CC2)c2nc(-c3cc(F)c(F)c(F)c3)ccc2n1 [Example 432, 2-amino-4-[4-(4-chlorophenoxyacetyl)piperazin-1-yl]-6-(3,4,5-trifluorophenyl)-pyrido-[3,2-d]pyrimidine] | 90 nM
CC(C)(C)OC(=O)NCC(=O)N1CCN(c2nc(N)nc3ccc(-c4ccc(F)cc4)nc23)CC1 [Example 434, 2-amino-4-{4-[N-(tert-butoxycarbonyl)-glycyl]-piperazin-1-yl}-6-(4-fluorophenyl)-pyrido[3,2-d]pyrimidine] | 93 nM
Cc1cccc(NC(=O)N2CCC(Nc3nc(N)nc4ccc(-c5ccc(F)cc5)nc34)C2)c1 [Example 580, 2-amino-4-[1-(3-methylphenylcarbamoyl)-(S)-amino-pyrrolidin-3-yl]-6-(4-fluorophenyl)-pyrido(3,2-d)pyrimidine] | 300 nM
Nc1nc(N2CCN(C(=O)COc3ccc(Cl)cc3)CC2)c2nc(-c3cccc(Cl)c3)ccc2n1 [Example 406, 2-amino-4-[4-(4-chlorophenoxyacetyl)piperazin-1-yl]-6-(3-chlorophenyl)pyrido-[3,2-d]pyrimidine] | 70 nM
Nc1nc(N2CCN(C(=O)COc3ccc(Cl)cc3)CC2)c2nc(-c3c(F)cccc3Cl)ccc2n1 [Example 442, 2-amino-4-[4-(4-chlorophenoxyacetyl)piperazin-1-yl]-6-(2-chloro-6-fluorophenyl)-pyrido-[3,2-d]pyrimidine] | 300 nM
CC(=O)Oc1ccc(-c2ccc3nc(N)nc(N4CCN(C(=O)COc5ccc(Cl)cc5)CC4)c3n2)cc1 [Example 504, 2-amino-4-[N-(4-chlorophenoxyacetyl)-piperazin-1-yl]-6-(4-acetoxy-phenyl)-pyrido(3,2-d)pyrimidine] | 50 nM
CC(C)(C)OC(=O)NC(Cc1ccc(Cl)cc1)C(=O)N1CCN(c2nc(N)nc3ccc(-c4ccc(F)cc4)nc23)CC1 (stereo in doubt) [Example 477, (S)-[2-{4-[2-amino-6-(4-fluorophenyl)-pyrido[3,2-d]pyrimidin-4-yl]-piperazin-1-yl}-1-(4-chlorobenzyl)-2-oxoethyl]-carbamic acid tert-butyl ester] | 4900 nM
N#CCOc1ccc(-c2ccc3nc(N)nc(N4CCN(C(=O)COc5ccc(Cl)cc5)CC4)c3n2)cc1 [Example 503, 2-amino-4-[N-(4-chlorophenoxyacetyl)-piperazin-1-yl]-6-(4-cyano-methoxyphenyl)-pyrido(3,2-d)pyrimidine] | 20 nM
Cc1ccc(-c2ccc3nc(N)nc(N4CCN(C(=O)COc5ccc(Cl)cc5)CC4)c3n2)cc1C [Example 516, 2-amino-4-[N-(4-chlorophenoxyacetyl)-piperazin-1-yl]-6-(3,4-dimethyl-phenyl)-pyrido(3,2-d)pyrimidine] | 56 nM
